Data: US20240398828A1, “HETERO-ATOM CONTAINING COMPOUNDS AND USES THEREOF” (Kumquat Biosciences Inc., priority 2021, published 2024)

Experiments:
PTPN1 (i.e., PTP1B) = target: T1, PTPN1 (i.e., PTP1B) (Homo sapiens, UniProt P18031); test: Phosphatase activity assay (DiFMUP substrate), PTP1B; format: biochemical; details: compounds binned ≤1 uM or >1 uM
T1 sequence (P18031 1-435): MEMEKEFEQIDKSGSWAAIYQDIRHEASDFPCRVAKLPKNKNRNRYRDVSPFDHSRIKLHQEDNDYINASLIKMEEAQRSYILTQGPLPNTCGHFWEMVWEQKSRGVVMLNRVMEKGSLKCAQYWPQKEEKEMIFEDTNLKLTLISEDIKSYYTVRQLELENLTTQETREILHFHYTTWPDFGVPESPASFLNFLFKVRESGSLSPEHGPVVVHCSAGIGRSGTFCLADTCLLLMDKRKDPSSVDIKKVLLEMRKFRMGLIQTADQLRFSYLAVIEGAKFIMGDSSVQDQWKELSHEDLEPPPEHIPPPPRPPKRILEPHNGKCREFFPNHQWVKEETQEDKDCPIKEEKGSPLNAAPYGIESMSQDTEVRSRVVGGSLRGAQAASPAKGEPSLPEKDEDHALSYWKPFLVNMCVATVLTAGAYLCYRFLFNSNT
In short: (§1)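 Read-out is continuous fluorescence of DiFMU (360 nm excitation, 450 nm emission) over about 15-30 minutes, with DiFMUP substrate at the enzyme's independently determined Km (PTPN2 approx. 45 μM final). Buffer: 50 mM HEPES pH 7.5, 150 mM NaCl, 0.5 mM EDTA, 1 mM DTT, 0.001% Tween-20, room temperature; initial rates versus 10-point dilution fitted for IC50, at least duplicate.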

PTPN2 (i.e., TC-PTP) = target: T2, PTPN2 (i.e., TC-PTP) (Homo sapiens, UniProt P17706); test: Phosphatase activity assay (DiFMUP substrate), PTPN2; format: biochemical; details: compounds binned ≤1 uM or >1 uM
T2 sequence (P17706 1-415): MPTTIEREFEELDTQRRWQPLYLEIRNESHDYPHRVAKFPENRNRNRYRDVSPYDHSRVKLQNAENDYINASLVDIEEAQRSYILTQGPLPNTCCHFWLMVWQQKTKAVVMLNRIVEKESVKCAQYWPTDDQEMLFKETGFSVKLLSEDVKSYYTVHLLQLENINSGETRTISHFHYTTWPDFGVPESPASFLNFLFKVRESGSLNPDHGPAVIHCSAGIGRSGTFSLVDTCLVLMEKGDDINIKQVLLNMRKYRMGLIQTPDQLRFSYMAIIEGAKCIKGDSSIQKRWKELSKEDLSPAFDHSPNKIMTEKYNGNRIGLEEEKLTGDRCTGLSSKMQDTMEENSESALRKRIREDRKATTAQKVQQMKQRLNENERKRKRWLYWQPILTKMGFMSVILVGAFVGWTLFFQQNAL
In short: as §1

| Compound | IC50 (PTPN1 (i.e., PTP1B)) [nM] | IC50 (PTPN2 (i.e., TC-PTP)) [nM] |
| --- | --- | --- |
| Cn1nc(-c2ccc(O)c(N3CC(=O)NS3(=O)=O)c2F)cc1O [Compound 479, 5-(2-fluoro-6-hydroxy-3-(5-hydroxy-1-methyl-1H-pyrazol-3-yl)phenyl)-1,2,5-thiadiazolidin-3-one 1,1-dioxide] | ≤ 1000 | ≤ 1000 |
| O=C1CN(c2c(O)ccc(C3=CC(COC(F)F)NC3)c2F)S(=O)(=O)N1 (stereo not shown) [Compound 480, 5-(3-(5-((difluoromethoxy)methyl)-2,5-dihydro-1H-pyrrol-3-yl)-2-fluoro-6-hydroxyphenyl)-1,2,5-thiadiazolidin-3-one 1,1-dioxide] | ≤ 1000 | ≤ 1000 |
| COCC1C=C(c2ccc(O)c(N3CC(=O)NS3(=O)=O)c2F)CN1 (stereo not shown) [Compound 481, 5-(2-fluoro-6-hydroxy-3-(5-(methoxymethyl)-2,5-dihydro-1H-pyrrol-3-yl)phenyl)-1,2,5-thiadiazolidin-3-one 1,1-dioxide] | ≤ 1000 | ≤ 1000 |
| CC(C)C1C=C(c2ccc(O)c(N3CC(=O)NS3(=O)=O)c2F)CN1 (stereo not shown) [Compound 482, 5-(2-fluoro-6-hydroxy-3-(5-isopropyl-2,5-dihydro-1H-pyrrol-3-yl)phenyl)-1,2,5-thiadiazolidin-3-one 1,1-dioxide] | ≤ 1000 | ≤ 1000 |
| C[C@@H]1C=C(c2ccc(O)c(N3CC(=O)NS3(=O)=O)c2F)CN1 [Compound 483, (R)-5-(2-fluoro-6-hydroxy-3-(5-methyl-2,5-dihydro-1H-pyrrol-3-yl)phenyl)-1,2,5-thiadiazolidin-3-one 1,1-dioxide] | ≤ 1000 | ≤ 1000 |
| N#CC1(n2cc(-c3ccc(O)c(N4CC(=O)NS4(=O)=O)c3F)cn2)CC1 [Compound 484, 1-(4-(3-(1,1-dioxido-4-oxo-1,2,5-thiadiazolidin-2-yl)-2-fluoro-4-hydroxyphenyl)-1H-pyrazol-1-yl)cyclopropane-1-carbonitrile] | ≤ 1000 | ≤ 1000 |
| CCn1cc(-c2ccc(O)c(N3CC(=O)NS3(=O)=O)c2F)cn1 [Compound 486, 5-(3-(1-ethyl-1H-pyrazol-4-yl)-2-fluoro-6-hydroxyphenyl)-1,2,5-thiadiazolidin-3-one 1,1-dioxide] | ≤ 1000 | ≤ 1000 |
| O=C1CN(c2c(Cl)ccc(-c3cc(C4CC4)n[nH]3)c2F)S(=O)(=O)N1 [Compound 487, 5-(6-chloro-3-(3-cyclopropyl-1H-pyrazol-5-yl)-2-fluorophenyl)-1,2,5-thiadiazolidin-3-one 1,1-dioxide] | ≤ 1000 | > 1000 |
| O=C1CN(c2c(O)ccc(-c3cn(CC(F)F)nc3F)c2F)S(=O)(=O)N1 [Compound 488, 5-(3-(1-(2,2-difluoroethyl)-3-fluoro-1H-pyrazol-4-yl)-2-fluoro-6-hydroxyphenyl)-1,2,5-thiadiazolidin-3-one 1,1-dioxide] | ≤ 1000 | ≤ 1000 |
| O=C1CN(c2c(O)ccc(C3=CCNC3)c2F)S(=O)(=O)N1 [Compound 489, 5-(3-(2,5-dihydro-1H-pyrrol-3-yl)-2-fluoro-6-hydroxyphenyl)-1,2,5-thiadiazolidin-3-one 1,1-dioxide] | ≤ 1000 | ≤ 1000 |
| O=C1CN(c2c(O)ccc(-c3cc(C4CC4(F)F)no3)c2F)S(=O)(=O)N1 (stereo not shown) [Compound 490, 5-(3-(3-(2,2-difluorocyclopropyl)isoxazol-5-yl)-2-fluoro-6-hydroxyphenyl)-1,2,5-thiadiazolidin-3-one 1,1-dioxide] | ≤ 1000 | ≤ 1000 |
| O=C1CN(c2c(O)ccc(-c3cc(C4CC4(F)F)nn3CC(F)F)c2F)S(=O)(=O)N1 (stereo not shown) [Compound 491, 5-(3-(3-(2,2-difluorocyclopropyl)-1-(2,2-difluoroethyl)-1H-pyrazol-5-yl)-2-fluoro-6-hydroxyphenyl)-1,2,5-thiadiazolidin-3-one 1,1-dioxide] | ≤ 1000 | ≤ 1000 |
| O=C1CN(c2c(O)ccc(-c3cc(C4CC4C(F)F)n[nH]3)c2F)S(=O)(=O)N1 (stereo not shown) [Compound 492, 5-(3-(3-(2-(difluoromethyl)cyclopropyl)-1H-pyrazol-5-yl)-2-fluoro-6-hydroxyphenyl)-1,2,5-thiadiazolidin-3-one 1,1-dioxide] | ≤ 1000 | ≤ 1000 |
| CCC1C=C(c2ccc(O)c(N3CC(=O)NS3(=O)=O)c2F)CN1 (stereo not shown) [Compound 493, 5-(3-(5-ethyl-2,5-dihydro-1H-pyrrol-3-yl)-2-fluoro-6-hydroxyphenyl)-1,2,5-thiadiazolidin-3-one 1,1-dioxide] | ≤ 1000 | ≤ 1000 |
| CCn1nc(-c2ccc(O)c(N3CC(=O)NS3(=O)=O)c2F)cc1C1CC1(F)F (stereo not shown) [Compound 494, 5-(3-(5-(2,2-difluorocyclopropyl)-1-ethyl-1H-pyrazol-3-yl)-2-fluoro-6-hydroxyphenyl)-1,2,5-thiadiazolidin-3-one 1,1-dioxide] | ≤ 1000 | ≤ 1000 |
| CS(=O)(=O)n1nc(C2CC2)cc1-c1ccc(O)c(N2CC(=O)NS2(=O)=O)c1F [Compound 495, 5-(3-(3-cyclopropyl-1-(methylsulfonyl)-1H-pyrazol-5-yl)-2-fluoro-6-hydroxyphenyl)-1,2,5-thiadiazolidin-3-one 1,1-dioxide] | ≤ 1000 | ≤ 1000 |

The remaining lines, values ahead:

| IC50 (PTPN1 (i.e., PTP1B)) [nM] | IC50 (PTPN2 (i.e., TC-PTP)) [nM] | Compound |
| --- | --- | --- |
| ≤ 1000 | > 1000 | Cn1cc(-c2ccc(O)c(N3CC(=O)NS3(=O)=O)c2F)nc1C1CC1(F)F (stereo not shown) [Compound 472, 5-(3-(2-(2,2-difluorocyclopropyl)-1-methyl-1H-imidazol-4-yl)-2-fluoro-6-hydroxyphenyl)-1,2,5-thiadiazolidin-3-one 1,1-dioxide] |
| ≤ 1000 | ≤ 1000 | O=C1CN(c2c(O)ccc(C3=CC(CCc4ccccc4)NC3)c2F)S(=O)(=O)N1 (stereo not shown) [Compound 473, 5-(2-fluoro-6-hydroxy-3-(5-phenethyl-2,5-dihydro-1H-pyrrol-3-yl)phenyl)-1,2,5-thiadiazolidin-3-one 1,1-dioxide] |
| ≤ 1000 | ≤ 1000 | N#CC1(n2cc(-c3ccc(O)c(N4CC(=O)NS4(=O)=O)c3F)c(F)n2)CC1 [Compound 474, 1-(4-(3-(1,1-dioxido-4-oxo-1,2,5-thiadiazolidin-2-yl)-2-fluoro-4-hydroxyphenyl)-3-fluoro-1H-pyrazol-1-yl)cyclopropane-1-carbonitrile] |
| ≤ 1000 | > 1000 | O=C1CN(c2c(O)ccc(C3=CC4CCC3N4)c2F)S(=O)(=O)N1 (stereo not shown) [Compound 475, 5-(3-(7-azabicyclo[2.2.1]hept-2-en-2-yl)-2-fluoro-6-hydroxyphenyl)-1,2,5-thiadiazolidin-3-one 1,1-dioxide] |
| ≤ 1000 | ≤ 1000 | N#CNC(=N)N1CC=C(c2ccc(O)c(N3CC(=O)NS3(=O)=O)c2F)C1 [Compound 476, N-cyano-3-(3-(1,1-dioxido-4-oxo-1,2,5-thiadiazolidin-2-yl)-2-fluoro-4-hydroxyphenyl)-2,5-dihydro-1H-pyrrole-1-carboximidamide] |
| ≤ 1000 | ≤ 1000 | O=C1CN(c2c(O)ccc(-c3cn[nH]c3)c2F)S(=O)(=O)N1 [Compound 477, 5-(2-fluoro-6-hydroxy-3-(1H-pyrazol-4-yl)phenyl)-1,2,5-thiadiazolidin-3-one 1,1-dioxide] |
| ≤ 1000 | ≤ 1000 | N#CC1CC1c1cc(-c2ccc(O)c(N3CC(=O)NS3(=O)=O)c2F)[nH]n1 (stereo not shown) [Compound 478, 2-(5-(3-(1,1-dioxido-4-oxo-1,2,5-thiadiazolidin-2-yl)-2-fluoro-4-hydroxyphenyl)-1H-pyrazol-3-yl)cyclopropane-1-carbonitrile] |
